Results as given in patent US9849489B2, “Passive sampling devices” (priority 2015, dated 2017).
Counter-ions that a name gives are not always drawn.

Experiments:
[1] = stability of 17 infused compounds in stored wristbands; assay type: physicochemical; settings: for Overall RSD from entire study to 28 days: RSD across all time and temperature samples (−20° C., 4° C., 30° C.); for Beginning RSD from starting time point: RSD of concentration (ng/mL), extraction immediately following infusion
Description: In another example, the stability of wristbands infused with 17 compounds of varied physiochemistry was studied for various combinations of times and temperatures. […] Twelve wristbands underwent solvent extraction and analysis immediately following infusion. The remaining wristbands were divided into three groups and one group of wristbands was stored at each of −20° C., 4° C., and 30° C. Four wristbands from each temperature group underwent solvent extraction and analysis after 7 days and after 28 days. Four wristbands from the −20° C. and 4° C. temperature groups underwent solvent extraction and analysis after 14 days. This stability study is ongoing and will span 2 years.

[2] = stability of PAH-infused wristbands stored in PTFE bags at three temperatures; assay type: physicochemical; settings: −20° C., 23° C. or 35° C., 72 hours
Description: Studies were carried out to examine whether PAHs would degrade after being sequestered by a wristband or whether field or handling conditions would influence exposure concentrations determined during wristband analysis.
The PAH-infused wristbands placed in PTFE storage bags were exposed to a temperature of −20° C. (in a walk-in freezer), 23° C. (ambient temperature), or 35° C. (in a drying oven) for 72 hours. Temperatures in each environment were monitored every 30 minutes using a temperature logger. Following the 72-hour exposure, the PAHs were extracted from the wristbands using solvent extraction and analyzed as described above.
In FIG. 14, the ratio of each analyte response divided by an internal standard response (for perylene-d12) are shown, because an error with surrogate recovery artificially inflated the variance across the three temperature exposures. […] The largest change among all PAH analytes was still less than 13% (fluorene-d10, freezer and ambient temperatures), so any changes in PAH concentrations were deemed negligible. Furthermore, potential changes in concentration would have been conserved since transportation was similar among wristbands within each temperature group. […] The standard deviations in FIG. 14 are the result of three replicates.

Row | Compound | Overall RSD from entire study to 28 days [1] [%] | Beginning RSD from starting time point [1] [%] | largest change in analyte response ratio between temperature groups [2]
1 | Brc1cc(Br)c(Oc2cc(Br)c(Br)cc2Br)c(Br)c1 [PBDE 154] | 51 | 53 | –
2 | CCOP(=S)(OCC)Oc1nc(Cl)c(Cl)cc1Cl [chlorpyrifos] | 24 | 19 | –
3 | [2H]c1c([2H])c([2H])c(-c2c(Cl)c(Cl)c(Cl)c(Cl)c2Cl)c([2H])c1[2H] [PCB-116-d5, reference compound] | 44 | 45 | –
4 | [2H]c1c([2H])c([2H])c2c(c1[2H])-c1c([2H])c([2H])c([2H])c([2H])c1C2([2H])[2H] [fluorene-d10, reference compound] | 16 | 14 | less than 13%
5 | [2H]c1c([2H])c(Oc2ccc(Cl)cc2O)c(Cl)c([2H])c1Cl [triclosan-d3, reference compound] | 11 | 9 | –
6 | [2H]c1c([2H])c(-c2cc(Cl)c(Cl)c(Cl)c2Cl)c([2H])c(Cl)c1Cl [PCB-156-d3, reference compound] | 50 | 53 | –
7 | O=S1(=O)OCC2C(CO1)C1(Cl)C(Cl)=C(Cl)C2(Cl)C1(Cl)Cl (stereo not drawn) [endosulfan sulfate] | 10 | 8 | –
8 | CCCSP(=O)(OCC)SCCC [prophos/ethoprophos] | 11 | 8 | –
9 | O=C1C2CC3C1C1(Cl)C(Cl)C4(Cl)C2C3C1(Cl)C4(Cl)Cl (stereo not drawn) [endrin Ketone] | 8 | 4 | –
10 | O=P(Oc1ccccc1)(Oc1ccccc1)Oc1ccccc1 [triphenyl phosphate] | 12 | 6 | –
11 | [2H]c1c([2H])c([2H])c2c(c1[2H])C(=O)c1c([2H])c([2H])c([2H])c([2H])c1C2=O [Anthraquinone-d8, reference compound] | 14 | 8 | –
12 | O=P(OC(CCl)CCl)(OC(CCl)CCl)OC(CCl)CCl [TCDPP, 1,3-dichloro-2-propyl phosphate] | 14 | 10 | –
13 | Brc1ccc(Oc2cc(Br)c(Br)cc2Br)c(Br)c1 [PBDE 99] | 43 | 46 | –
14 | [2H]c1c([2H])c2c([2H])c([2H])c3c([2H])c([2H])c([2H])c4c([2H])c([2H])c(c1[2H])c2c34 [pyrene-d10, reference compound] | 32 | 27 | –
15 | Brc1ccc(Oc2ccc(Br)cc2Br)c(Br)c1 [PBDE 47] | 37 | 37 | –
16 | [2H]c1c([2H])c([2H])c(-c2c(Cl)c(Cl)cc(Cl)c2Cl)c([2H])c1[2H] [PCB-65-d5, reference compound] | 37 | 35 | –
